Data on 21 molecules can be found in US20260297080A1, “BICYCLIC COMPOUNDS AS CDK INHIBITORS” (BeOne Medicines I GmbH, priority 2022, published 2026).

The structures appear in SMILES notation.

One experiment deals with CDK1/Cyclin B1 (Homo sapiens, UniProt P06493). Nature of the experiment: CDK1/Cyclin B1 Biochemical Assay (TR-FRET), 0.015 mM ATP. The settings on record: 0.15 μM Rb (Ser780)-biotin substrate, pH7.0, 60 min preincubation, 120 min reaction, room temperature. A digest of the protocol: (§1)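 Percent inhibition was derived from the 665 nm/620 nm TR-FRET ratio after a 120-minute room-temperature reaction on 0.15 μM Rb (Ser780)-biotin, preceded by 60-minute enzyme–compound preincubation. IC50 came from four-parameter logistic fitting.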
(In general: In TR-FRET formats the signal depends on donor and acceptor labels being close together.)

The next experiment deals with CDK2/Cyclin E1 (Homo sapiens, UniProt P24941). Nature of the experiment: CDK2/Cyclin E1 Biochemical Assay (TR-FRET), 0.060 mM ATP. The settings on record: 0.15 μM Rb (Ser780)-biotin substrate, pH7.0, 60 min preincubation, 120 min reaction, room temperature. The method, boiled down:
as §1

Sequence of CDK1/Cyclin B1 (P06493 whole entry): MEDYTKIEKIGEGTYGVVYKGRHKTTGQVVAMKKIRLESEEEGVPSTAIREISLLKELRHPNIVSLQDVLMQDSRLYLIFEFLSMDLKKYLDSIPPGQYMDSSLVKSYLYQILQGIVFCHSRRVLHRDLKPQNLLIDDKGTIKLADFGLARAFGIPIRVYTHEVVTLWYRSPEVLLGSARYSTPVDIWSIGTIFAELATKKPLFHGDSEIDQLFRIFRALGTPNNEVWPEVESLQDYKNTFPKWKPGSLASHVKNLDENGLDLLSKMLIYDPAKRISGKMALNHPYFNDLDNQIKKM
Sequence of CDK1/Cyclin B1 (P14635 whole entry partner): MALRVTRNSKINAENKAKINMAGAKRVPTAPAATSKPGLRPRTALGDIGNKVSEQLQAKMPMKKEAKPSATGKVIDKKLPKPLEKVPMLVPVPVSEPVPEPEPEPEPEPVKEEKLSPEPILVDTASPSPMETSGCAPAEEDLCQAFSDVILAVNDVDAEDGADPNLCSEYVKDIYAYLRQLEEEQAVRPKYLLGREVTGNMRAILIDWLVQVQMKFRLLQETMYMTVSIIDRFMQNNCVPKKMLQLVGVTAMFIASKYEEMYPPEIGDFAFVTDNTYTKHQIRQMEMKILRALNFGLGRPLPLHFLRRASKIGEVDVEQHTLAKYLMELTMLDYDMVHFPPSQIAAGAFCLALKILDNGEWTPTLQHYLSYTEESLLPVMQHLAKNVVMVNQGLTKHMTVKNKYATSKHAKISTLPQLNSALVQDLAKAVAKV

As a reminder, the IC50 is the concentration that gives 50% inhibition. A high value points to lower potency. Take `CC(C)NC(=O)O[C@H]1CC[C@@H](c2cc(Nc3ccc4c(c3F)CN(C3CCN(C)CC3)S4(=O)=O)n[nH]2)C1` (relative stereo) [Example 62, cis-3-(3-((4-fluoro-2-(1-methylpiperidin-4-yl)-1,1-dioxido-2,3-dihydrobenzo[d]isothiazol-5-yl)amino)-1H-pyrazol-5-yl)cyclopentyl isopropylcarbamate]: the IC50 on CDK1/Cyclin B1 worked out at 758 nM; on CDK2/Cyclin E1, 9.5 nM.
In the case of `CC(C)NC(=O)O[C@H]1CC[C@@H](c2cc(Nc3ccc4c(c3F)CN(C3CCN(Cc5ccccc5)CC3)S4(=O)=O)n[nH]2)C1` (relative stereo) [Example 63, cis-3-(3-((2-(1-benzylpiperidin-4-yl)-4-fluoro-1,1-dioxido-2,3-dihydrobenzo[d]isothiazol-5-yl)amino)-1H-pyrazol-5-yl)cyclopentyl isopropylcarbamate], the IC50 on CDK1/Cyclin B1 came out at 1110 nM; at CDK2/Cyclin E1, 23 nM.
For `COCCN1Cc2c(ccc(Nc3cc([C@@H]4CC[C@H](OC(=O)NC(C)C)C4)[nH]n3)c2F)S1(=O)=O` (relative stereo) [Example 64, cis-3-(3-((4-fluoro-2-(2-methoxyethyl)-1,1-dioxido-2,3-dihydrobenzo[d]isothiazol-5-yl)amino)-1H-pyrazol-5-yl)cyclopentyl isopropylcarbamate], the IC50 is 214 nM against CDK1/Cyclin B1 and 4.6 nM against CDK2/Cyclin E1.
In the case of `CC(C)NC(=O)O[C@H]1CC[C@@H](c2cc(Nc3ccc4c(c3F)CN(C(C)C)S4(=O)=O)n[nH]2)C1` (relative stereo) [Example 65, cis-3-(3-((4-fluoro-2-isopropyl-1,1-dioxido-2,3-dihydrobenzo[d]isothiazol-5-yl)amino)-1H-pyrazol-5-yl)cyclopentyl isopropylcarbamate], the results for the IC50 against CDK1/Cyclin B1 and at CDK2/Cyclin E1 were 299 nM and 6.9 nM, respectively.
Turning to `CC(C)NC(=O)O[C@H]1CC[C@@H](c2cc(Nc3ccc4c(c3F)CN(CC(F)(F)F)S4(=O)=O)n[nH]2)C1` (relative stereo) [Example 66, cis-3-(3-((4-fluoro-1,1-dioxido-2-(2,2,2-trifluoroethyl)-2,3-dihydrobenzo[d]isothiazol-5-yl)amino)-1H-pyrazol-5-yl)cyclopentyl isopropylcarbamate], the values for the IC50 on CDK1/Cyclin B1 and against CDK2/Cyclin E1 were 412 nM and 7.3 nM, respectively.
The like results for `CC(C)NC(=O)O[C@H]1CC[C@@H](c2cc(Nc3ccc4c(c3F)CN(C3CCC3)S4(=O)=O)n[nH]2)C1` (relative stereo) [Example 67, cis-3-(3-((2-cyclobutyl-4-fluoro-1,1-dioxido-2,3-dihydrobenzo[d]isothiazol-5-yl)amino)-1H-pyrazol-5-yl)cyclopentyl isopropylcarbamate] were, in that order, 472 nM and 14 nM.
Take `CC(C)NC(=O)O[C@H]1CC[C@@H](c2cc(Nc3ccc4c(c3F)CN(C3CCCC3)S4(=O)=O)n[nH]2)C1` (relative stereo) [Example 68, cis-3-(3-((2-cyclopentyl-4-fluoro-1,1-dioxido-2,3-dihydrobenzo[d]isothiazol-5-yl)amino-1H-pyrazol-5-yl)cyclopentyl isopropylcarbamate]: the IC50 was 1180 nM at CDK1/Cyclin B1 and 15 nM at CDK2/Cyclin E1.
In the case of `CC(C)NC(=O)O[C@H]1CC[C@@H](c2cc(Nc3ccc4c(c3F)CN(C3CCOC3)S4(=O)=O)n[nH]2)C1` (relative stereo) [Example 69, cis-3-(3-((4-fluoro-1,1-dioxido-2-(tetrahydrofuran-3-yl)-2,3-dihydrobenzo[d]isothiazol-5-yl)amino)-1H-pyrazol-5-yl)cyclopentyl isopropylcarbamate], the IC50 against CDK1/Cyclin B1 turned out to be 647 nM; against CDK2/Cyclin E1 it was 9.5 nM.
The like results for `CC(C)NC(=O)O[C@H]1CC[C@@H](c2cc(Nc3ccc4c(c3F)CN(C3CCN(C)C3)S4(=O)=O)n[nH]2)C1` (relative stereo) [Example 70, cis-3-(3-((4-fluoro-2-(1-methylpyrrolidin-3-yl)-1,1-dioxido-2,3-dihydrobenzo[d]isothiazol-5-yl)amino-1H-pyrazol-5-yl)cyclopentyl isopropylcarbamate] were, in that order, 503 nM and 11 nM.
As for `CC(C)NC(=O)O[C@H]1CC[C@@H](c2cc(Nc3ccc4c(c3F)CN(CC(O)CO)S4(=O)=O)n[nH]2)C1` (relative stereo) [Example 71, cis-3-(3-((2-(2,3-dihydroxypropyl)-4-fluoro-1,1-dioxido-2,3-dihydrobenzo[d]isothiazol-5-yl)amino)-1H-pyrazol-5-yl)cyclopentyl isopropylcarbamate], the half-inhibitory concentration (IC50) at CDK1/Cyclin B1 is 440 nM; on CDK2/Cyclin E1 it was 5.2 nM.
The like results for `CC(C)NC(=O)O[C@H]1CC[C@@H](c2cc(Nc3ccc4c(c3F)CN(CC(O)CO)S4(=O)=O)nn2CC(O)CO)C1` (relative stereo) [Example 72, cis-3-(1-(2,3-dihydroxypropyl)-3-((2-(2,3-dihydroxypropyl)-4-fluoro-1,1-dioxido-2,3-dihydrobenzo[d]isothiazol-5-yl)amino)-1H-pyrazol-5-yl)cyclopentyl isopropylcarbamate] were, in that order, greater than 10000 nM and 5910 nM.
Regarding `CC(C)NC(=O)O[C@H]1CC[C@@H](c2cc(Nc3ccc4c(c3F)CN(CCCN(C)C)S4(=O)=O)n[nH]2)C1` (relative stereo) [Example 73, cis-3-(3-((2-(3-(dimethylamino)propyl)-4-fluoro-1,1-dioxido-2,3-dihydrobenzo[d]isothiazol-5-yl)amino)-1H-pyrazol-5-yl)cyclopentyl isopropylcarbamate], the IC50 against CDK1/Cyclin B1 came out at 583 nM; against CDK2/Cyclin E1 it was 7.9 nM.
As for `CC(C)NC(=O)O[C@H]1CC[C@@H](c2cc(Nc3ccc4c(c3F)CN(CCN(C)C)S4(=O)=O)n[nH]2)C1` (relative stereo) [Example 74, cis-3-(3-((2-(2-(dimethylamino)ethyl)-4-fluoro-1,1-dioxido-2,3-dihydrobenzo[d]isothiazol-5-yl)amino-1H-pyrazol-5-yl)cyclopentyl isopropylcarbamate], the IC50 at CDK1/Cyclin B1 was 962 nM; at CDK2/Cyclin E1 it was 16 nM.
As to `CC(C)NC(=O)O[C@H]1CC[C@@H](c2cc(Nc3ccc4c(c3F)CN(Cc3ccccc3)S4(=O)=O)n[nH]2)C1` (relative stereo) [Example 75, cis-3-(3-((2-benzyl-4-fluoro-1,1-dioxido-2,3-dihydrobenzo[d]isothiazol-5-yl)amino)-1H-pyrazol-5-yl)cyclopentyl isopropylcarbamate], the results for the IC50 against CDK1/Cyclin B1 and against CDK2/Cyclin E1 were 1080 nM and 16 nM, respectively.
On to `CC(C)NC(=O)O[C@H]1CC[C@@H](c2cc(Nc3ccc4c(c3F)CN(CC(C)(C)O)S4(=O)=O)n[nH]2)C1` (relative stereo) [Example 76, cis-3-(3-((4-fluoro-2-(2-hydroxy-2-methylpropyl)-1,1-dioxido-2,3-dihydrobenzo[d]isothiazol-5-yl)amino)-1H-pyrazol-5-yl)cyclopentyl isopropylcarbamate], for which the half-maximal inhibitory concentration (IC50) was 416 nM against CDK1/Cyclin B1 and 10 nM against CDK2/Cyclin E1.
Regarding `CC(C)NC(=O)O[C@H]1CC[C@@H](c2cc(Nc3ccc4c(c3F)CN(C3CCN(S(C)(=O)=O)CC3)S4(=O)=O)n[nH]2)C1` (relative stereo) [Example 77, cis-3-(3-((4-fluoro-2-(1-(methylsulfonyl)piperidin-4-yl)-1,1-dioxido-2,3-dihydrobenzo[d]isothiazol-5-yl)amino)-1H-pyrazol-5-yl)cyclopentyl isopropylcarbamate], the IC50 against CDK1/Cyclin B1 was 621 nM; on CDK2/Cyclin E1 it was 10 nM.
Regarding `CC(=O)N1CCC(N2Cc3c(ccc(Nc4cc([C@@H]5CC[C@H](OC(=O)NC(C)C)C5)[nH]n4)c3F)S2(=O)=O)CC1` (relative stereo) [Example 78, cis-3-(3-((2-(1-acetylpiperidin-4-yl)-4-fluoro-1,1-dioxido-2,3-dihydrobenzo[d]isothiazol-5-yl)amino)-1H-pyrazol-5-yl)cyclopentyl isopropylcarbamate], the IC50 against CDK1/Cyclin B1 was determined as 556 nM; on CDK2/Cyclin E1, 8.9 nM.
For the molecule `CC(C)NC(=O)O[C@H]1CC[C@@H](c2cc(Nc3ccc4c(c3F)CN(C3CCNC3=O)S4(=O)=O)n[nH]2)C1` (relative stereo) [Example 79, cis-3-(3-((4-fluoro-1,1-dioxido-2-(2-oxopyrrolidin-3-yl)-2,3-dihydrobenzo[d]isothiazol-5-yl)amino)-1H-pyrazol-5-yl)cyclopentyl isopropylcarbamate], the IC50 is 638 nM on CDK1/Cyclin B1 and 8.3 nM on CDK2/Cyclin E1.
Take `CC(=O)N1CCC(N2Cc3c(ccc(Nc4cc([C@@H]5CC[C@H](OC(=O)NC(C)C)C5)[nH]n4)c3F)S2(=O)=O)C1` (relative stereo) [Example 80, cis-3-(3-((2-(1-acetylpyrrolidin-3-yl)-4-fluoro-1,1-dioxido-2,3-dihydrobenzo[d]isothiazol-5-yl)amino)-1H-pyrazol-5-yl)cyclopentyl isopropylcarbamate]: the half-inhibitory concentration (IC50) was 767 nM against CDK1/Cyclin B1 and 10 nM at CDK2/Cyclin E1.
For `CC(C)NC(=O)O[C@H]1CC[C@@H](c2cc(Nc3ccc4c(c3F)CN(C3CCNC(=O)C3)S4(=O)=O)n[nH]2)C1` (relative stereo) [Example 81, cis-3-(3-((4-fluoro-1,1-dioxido-2-(2-oxopiperidin-4-yl)-2,3-dihydrobenzo[d]isothiazol-5-yl)amino)-1H-pyrazol-5-yl)cyclopentyl isopropylcarbamate], the results for the half-maximal inhibitory concentration (IC50) on CDK1/Cyclin B1 and against CDK2/Cyclin E1 were 537 nM and 7.2 nM, respectively.
For `CC(C)NC(=O)O[C@H]1CC[C@@H](c2cc(Nc3ccc4c(c3F)CN(C3CCC(=O)NC3)S4(=O)=O)n[nH]2)C1` (relative stereo) [Example 82, cis-3-(3-((4-fluoro-1,1-dioxido-2-(6-oxopiperidin-3-yl)-2,3-dihydrobenzo[d]isothiazol-5-yl)amino)-1H-pyrazol-5-yl)cyclopentyl isopropylcarbamate] the same measures were 381 nM and 10 nM.
